The values below come from patent publication US9677112B2 (priority 2012, dated 2017).

Where two headings read alike, the source gives them in different places. Marks after values point to notes of the source that are not given here.

Series [1] relates to TEM-1 Bla-expressing E. coli. In kind it is cell-based.
The target of series [2] is T1, BlaC (Mycobacterium tuberculosis, UniProt P9WKD3). As to conditions: for Km: read-out: BlaC Km.
The next series has as its system BlaC-expressing E. coli. In kind it is cell-based.
The next series addresses TEM-1 Bla (Escherichia coli, UniProt P62593). The series can be described thus: Fluorescence activation of probes by TEM-1 Bla. In kind it is biochemical, E. coli. The following applies: for change in fluorescence with TEM-1 Bla (in words): TEM-1 Bla 50 nM, 30 minutes. As for the experimental part: (§1) The fluorescent spectra of the probes CDC-1, CDC-3, CDC-OMe and CDC-OEt were recorded before and after BlaC treatment to examine their responses to BlaC.
(§2) The response of CDC-OMe to varying concentrations of BlaC and TEM-1 Bla (at a range of 1 pM to 100 nM) was examined to investigate its specificity (FIG. 1C). 1 nM of BlaC (100 μL) induced a 130% increase in the fluorescence intensity within one hour (F/F0=2.3), while a 100-fold higher TEM-1 Bla concentration (100 nM) could only produce 30% fluorescence enhancement (F/F0=1.3).
(§3) Even at a more than 1000-fold higher concentration, the fluorescence signal of CDG-OMe generated by TEM-1 Bla (400 nM) was just 30% of that by BlaC (400 pM) in 300 mins, confirming its high selectivity for BlaC (FIG. 5C). Less than 1 fmol of BlaC was readily detectable with CDG-OMe after 8 hours incubation (FIG. 5D).

Series [3] has as its target T1, BlaC. The series can be described thus: Fluorescence activation of probes by BlaC. The class given is biochemical. As for the experimental part: as §1, §2, §3
In series [4] the test system is COc1ccc(-c2c3ccc(=O)cc-3oc3cc(OCc4ccc(OCC5=C(C(=O)O)N6C(=O)[C@](NC(=O)Cc7ccccc7)(OC)[C@H]6SC5)cc4)ccc23)c(C)c1. The series can be described thus: purified protein, by the assay type. The following applies: 22.0 °C.
Series [5] deals with COc1ccc(-c2c3ccc(=O)cc-3oc3cc(OCc4ccc(OCC5=C(C(=O)O)N6C(=O)[C@@H](NC(=O)Cc7ccccc7)[C@H]6SC5)cc4)ccc23)c(C)c1. As to the kind of experiment: purified protein, by the assay type. The following applies: 22.0 °C.
In series [6] the test system is O=C(Cc1ccccc1)N[C@@H]1C(=O)N2C(C(=O)O)=C(COc3ccc4ccc(=O)oc4c3)C[S@+]([O-])[C@H]12. As to the kind of experiment: purified protein, by the assay type. The following applies: pH 7.4; 22.0 °C.
Series [7] concerns M. tuberculosis var. bovis strain BCG. The class given is cell-based, Mycobacterium tuberculosis var. bovis strain BCG.
Where [8] appears, read: 1 nM of BlaC (100 μL), within one hour.

Chain of TEM-1 Bla (P62593 24-286 limits assumed): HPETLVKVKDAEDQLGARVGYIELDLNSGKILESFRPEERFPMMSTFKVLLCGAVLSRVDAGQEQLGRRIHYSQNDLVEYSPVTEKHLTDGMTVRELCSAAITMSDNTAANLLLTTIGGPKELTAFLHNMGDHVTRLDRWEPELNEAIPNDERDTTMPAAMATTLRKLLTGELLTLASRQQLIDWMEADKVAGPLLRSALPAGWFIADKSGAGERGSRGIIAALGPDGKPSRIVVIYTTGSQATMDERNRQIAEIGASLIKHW
T1 sequence (P9WKD3 35-307 limits assumed): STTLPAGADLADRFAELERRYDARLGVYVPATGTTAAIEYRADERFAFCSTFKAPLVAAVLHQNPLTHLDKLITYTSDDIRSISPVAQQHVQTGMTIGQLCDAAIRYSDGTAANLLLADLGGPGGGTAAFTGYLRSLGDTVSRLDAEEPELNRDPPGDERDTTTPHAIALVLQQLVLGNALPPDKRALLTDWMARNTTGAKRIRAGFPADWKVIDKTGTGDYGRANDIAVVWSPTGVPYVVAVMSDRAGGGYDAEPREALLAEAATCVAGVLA

`COc1ccc(-c2c3ccc(=O)cc-3oc3cc(OCc4ccc(OCC5=C(C(=O)O)N6C(=O)[C@@H](NC(=O)Cc7ccccc7)[C@H]6SC5)cc4)ccc23)c(C)c1` [CDG-1, (6R,7R)-3-((4-(((9-(4-Methoxy-2-methylphenyl)-3-oxo-3H-xanthen-6-yl)oxy)methyl)phenoxy)methyl)-8-oxo-7-(2-phenylacetamido)-5-thia-1-azabicyclo[4.2.0]oct-2-ene-2-carboxylic acid]: the “number of TEM-1 Bla-carrying E. coli detected” value in series [1] is “approximately 1,000”. For the same molecule, the BlaC kcat entry on BlaC [2] (pH 6.6) is listed as “(1.0) s^−1”. In the series on BlaC-expressing E. coli, the “number of BlaC-carrying E. coli detected” value is ~10,000.
Consider `CCN1CCN(C(=O)N[C@@H](C(=O)N[C@@H]2C(=O)N3C(C(=O)O)=C(COc4ccc5ccc(=O)oc5c4)CS[C@H]23)c2ccccc2)C(=O)C1=O` [CDC-3, (6R,7R)-7-((R)-2-(4-Ethyl-2,3-dioxopiperazine-1-carboxamido)-2-phenylacetamido)-8-oxo-3-((2-oxo-2H-chromen-7-yloxy)methyl)-5-thia-1-azabicyclo[4.2.0]oct-2-ene-2-carboxylic acid], for which, at BlaC [2], the BlaC kcat is 6 s⁻¹ and the Km was 69 µM. For the same molecule, the “change in fluorescence with TEM-1 Bla (in words)” value (shortened to “change in fluorescence”) at TEM-1 Bla is on record as “rapid fluorescence”.
Consider `CO[C@@]1(NC(C)=O)C(=O)N2C(C(=O)O)=C(COc3ccc4ccc(=O)oc4c3)CS[C@@H]21` [CDC-5, (6R,7S)-7-Acetamido-7-methoxy-8-oxo-3-(((2-oxo-2H-chromen-7-yl)oxy)methyl)-5-thia-1-azabicyclo[4.2.0]oct-2-ene-2-carboxylic acid], for which, on BlaC [2], the BlaC kcat stood at 0.52 s⁻¹ and the Km is 139 µM.
In the case of `O=C(Cc1ccccc1)N[C@@H]1C(=O)N2C(C(=O)O)=C(COc3ccc4ccc(=O)oc4c3)CS[C@H]12` [CDC-1, (6R,7R)-8-Oxo-3-((2-oxo-2H-chromen-7-yloxy)methyl)-7-(2-phenylacetamido)-5-thia-1-azabicyclo[4.2.0]oct-2-ene-2-carboxylic acid], at BlaC [2], the BlaC kcat turned out to be 13 s⁻¹ and the Km was found to be 63 µM. The “fluorescence in E. coli expressing no β-lactamase, TEM-1 Bla or BlaC (in words)” value in the series on BlaC-expressing E. coli is recorded as “present in E. coli expressing either TEM-1 Bla or BlaC”. Also, the “change in fluorescence” value on TEM-1 Bla is “rapid fluorescence”. For the same molecule, the “signal with TEM-1 Bla compared with BlaC (in words)” value at TEM-1 Bla (serially diluted enzymes, 1 hour) is on record as “stronger signal than with BlaC”.
Turning to `CCO[C@@]1(NC(=O)Cc2ccccc2)C(=O)N2C(C(=O)O)=C(COc3ccc4ccc(=O)oc4c3)CS[C@@H]21` [CDC-OEt, (6R,7S)-7-Ethoxy-8-oxo-3-((2-oxo-2H-chromen-7-yloxy)methyl)-7-(2-phenylacetamido)-5-thia-1-azabicyclo[4.2.0]oct-2-ene-2-carboxylic acid], the “fluorescence enhancement by BlaC (in words)” value at BlaC [3] (within 30 minutes, BlaC 50 nM) is “only slight fluorescence enhancement”. Moreover, on BlaC [2], the BlaC kcat was 0.026 s⁻¹, the “further reduction in turnover number (BlaC) relative to CDC-OMe” value amounted to 40 fold and the Km turned out to be 131 µM.
For the molecule BlaC (Mycobacterium tuberculosis H37Rv), the Km entry in [4] (pH 6.6) is “(4.7)^c μM”; in [4] (pH 7.4), 2.9 µM; in series [5] (pH 6.6), “(2.1)^c μM”; in series [5] (pH 7.4), 2.1 µM; in [6], 136 µM. The turnover number (kcat) in [4] (pH 7.4) was found to be 0.7 s⁻¹; in series [5] (pH 7.4) it was 3.7 s⁻¹; in series [6], 0.51 s⁻¹. For the same molecule, the results for the kcat/Km in series [4] (pH 7.4), in series [5] (pH 7.4) and in series [6] were 2.4 × 10^5 s^−1M^−1, 1.8 × 10^6 s^−1M^−1 and 3.8 × 10^3 s^−1M^−1, respectively.
Consider `CC(=O)N[C@@H]1C(=O)N2C(C(=O)O)=C(COc3ccc4ccc(=O)oc4c3)CS[C@H]12` [CDC-4, (6R,7R)-7-Acetamido-8-oxo-3-(((2-oxo-2H-chromen-7-yl)oxy)methyl)-5-thia-1-azabicyclo[4.2.0]oct-2-ene-2-carboxylic acid], for which, on BlaC [2], the BlaC kcat was found to be 10 s⁻¹ and the Km is 148 µM.
With `CO[C@@]1(NC(=O)Cc2ccccc2)C(=O)N2C(C(=O)O)=C(COc3ccc4ccc(=O)oc4c3)CS[C@@H]21` [CDC-OMe, (6R,7S)-7-Methoxy-8-oxo-3-((2-oxo-2H-chromen-7-yloxy)methyl)-7-(2-phenylacetamido)-5-thia-1-azabicyclo[4.2.0]oct-2-ene-2-carboxylic acid], at BlaC [3] (setting [8]), the “F/F0 (turn-on ratio)” value amounted to 2.3 and the “increase in the fluorescence intensity” value is on record as 130%. Besides, the “enhancement of fluorescence intensity by BlaC” value at BlaC [3] (in less than 30 minutes, BlaC 50 nM) is recorded as “more than 30 fold”. At BlaC [2], the BlaC kcat came out at 1 s⁻¹, the “catalytic efficiency (kcat/Km) for BlaC over TEM-1 Bla” value is “over 1,000 fold” and the Km came out at 47 µM. Moreover, the “fluorescence in E. coli expressing no β-lactamase, TEM-1 Bla or BlaC (in words)” value in the series on BlaC-expressing E. coli was “strong fluorescence was observed only with E. coli expressing BlaC”. Moreover, on TEM-1 Bla, the “change in fluorescence” value is listed as “no change in the fluorescence intensity”. Moreover, at TEM-1 Bla (TEM-1 Bla 100 nM, one hour), the “F/F0 (turn-on ratio)” value is given as 1.3 and the fluorescence enhancement came out at 30%.
Turning to `COc1ccc(-c2c3ccc(=O)cc-3oc3cc(OCc4ccc(OCC5=C(C(=O)O)N6C(=O)[C@](NC(=O)Cc7ccccc7)(OC)[C@H]6SC5)cc4)ccc23)c(C)c1` [CDG-OMe, (6R,7S)-7-Methoxy-3-((4-(((9-(4-methoxy-2-methylphenyl)-3-oxo-3H-xanthen-6-yl)oxy)methyl)phenoxy)methyl)-8-oxo-7-(2-phenylacetamido)-5-thia-1-azabicyclo[4.2.0]oct-2-ene-2-carboxylic acid], the “amount of BlaC readily detectable” value on BlaC [3] (after 8 hours incubation) is listed as “Less than 1 fmol”. The “increase of fluorescence emission at 520 nm upon treatment with BlaC” value at BlaC [3] (excitation 490 nm) was “up to 218 fold”. Moreover, the “signal from TEM-1 Bla-expressing E. coli (in words)” value in [1] is reported as “no detectable signal”. The “increase of kcat/Km for BlaC relative to CDC-OMe” value at BlaC [2] was 11 fold. For the same molecule, on BlaC [2] (pH 6.6), the BlaC kcat result is “(0.8) s^−1”. Also, the “signal from BlaC-expressing E. coli (in words)” value in the series on BlaC-expressing E. coli is reported as “strong fluorescent signal”. For the same molecule, the “fluorescence signal generated by TEM-1 Bla relative to that by BlaC” value on TEM-1 Bla (TEM-1 Bla 400 nM vs BlaC 400 pM, 300 mins) was 30%. For the same molecule, the “number of BCG detected” value is reported as 2×10^5 CFU in series [7] (20 min incubation) and 10^3 CFU in [7] (438 mins (7 hours) incubation).
